Reference: US7192614B2, “Compositions and methods of treatment to alleviate or prevent migrainous headaches and their associated symptoms” (GelStat Corporation, priority 2002, dated 2007)

Legend:
[1] = tested on: migraine; settings: cited from earlier work
[2] = tested on: migraine headache; test: Individual case reports, acute sublingual treatment of migraine headache (Examples 1-8, 10); type: in vivo, human; settings: single subject
Protocol: A person in otherwise good health had suffered for years with consistently recurring migraine headaches, frequency approximately 1–3 times per month, average duration 4–12 hours, which headaches had proven refractory to standard pharmacological treatment. These migraine headaches were often accompanied by nausea, and infrequently by vomiting. Each occurrence of migraine headache rendered the individual unable to participate in the normal activities of daily living, both socially and professionally. Absenteeism from work and missed social engagements resulted from their frequent need to ensconce themself in a darkened, quiet room where they would ‘wait out’ the headache. The frequency and unpredictability of the migraine headaches caused substantial impairment even between events, this impairment associated with anxiety and the inability to plan any event with confidence. This individual used the present invention in a two (2) part sublingual administration regimen, wherein a first composition is administered sublingually, and allowed to reside under the tongue for a period of about sixty (60) seconds. A second identical composition is administered, following the start of administration of the first composition by approximately five (5) minutes. […]

[3] = 5 mg, placebo-controlled 2-attack study
[4] = doses > or = 2.5 mg, Rapoport 1997

| SMILES | pain free at 2 hours postdose ([1]; 5 mg) | pain-free response at 1 hour postdose ([1]; 5 mg) | sustained pain-free response at 24 hours ([1]; 5 mg) | headache response at 30 minutes [1, 3] | headache response at 2 hours [1, 3] | 1 Hour headache response ([1]; Table 2, literature values) | 2 Hour complete headache response ([1]; Table 2, literature values) | 2 Hour headache response ([1]; Table 2, literature values) | 2 hour pain free ([1]; Table 2, literature values) | 2 hour sustained pain free ([1]; Table 2, literature values) | headache response rate at 1 hour [1, 4] | headache response rate at 2 hours [1, 4] | subject-reported side effects [2] | subject-reported relief of migraine headache and associated symptoms ([2]; two part sublingual regimen) |
| --- | --- | --- | --- | --- | --- | --- | --- | --- | --- | --- | --- | --- | --- | --- |
| CN(C)CCc1c[nH]c2ccc(C[C@H]3COC(=O)N3)cc12 [Zolmitriptan] | 31.1 % of attacks | 10.6 % of attacks | ^9Among attacks treated with ZOMIG-ZMT 5 mg, a sustained pain-free response at 24 hours was achieved in 22.2% of attacks compared to 8.2% for placebo (P < .0001)^1 also unpublished data, see same web address as for #5 | 16.5 % of attacks | 59 % of attacks | 44%^1 | 40–45%^6,7 | 66%^2,3,4 | 27–33%^8 | 31%^9 | 44 to 51% | 65 to 67% |  |  |
| CNS(=O)(=O)Cc1ccc2[nH]cc(CCN(C)C)c2c1 [Sumatriptan] |  |  |  |  |  | 20% | 36% | 59% | 29% |  |  |  | “weakness” and “exhaustion” | moderate success |
